Laboratory results published in US5063205A, “Uptake of iron by the body” (National Research Development Corporation, priority 1987, dated 1991).

How the values were obtained:
duodenum = test: Duodenum wet weight and cell turnover (L-ornithine decarboxylase activity) after oral EGF; type: in vivo, mouse; settings: oral EGF about 1 n.mole/day, up to 7 days
mice = test: Whole body retention of intragastric 59Fe3+ by gamma counting; type: in vivo, mouse; settings: EGF in drinking water for 3 days, 12 hours fast, intragastric 1 μCurie 59Fe3+ as 50 μl of 100 μM chelate; whole body count
Protocol: (B) The procedure described under (A) was repeated but with the treated mice receiving the EGF for 3 rather than 7 days. After fasting for 12 hours both the EGF-treated and the control mice were treated intragastrically with 1 μCurie of ^59 Fe^3+ administered as 50 μl of a 100 μM aqueous solution of the radiolabelled 2:1 nitrilotriacetic acid:iron(III) complex. The mice were subjected to a whole body count by gamma counting at 3 hours and 7 days later.

[1] = system: tied-off loop of intestine of an anaesthetised mouse; test: In vivo 59Fe3+ uptake from tied-off loop of intestine of anaesthetised mouse
Protocol: (§1) (A) Six week old, male To mice received doses averaging 1 n.mole/day of mouse epidermal growth factor in their drinking water during a period of up to 7 days, a control group of similar mice receiving plain drinking water. Iron absorption was then studied in the mice by both in vitro and in vivo techniques. The former, using techniques as described by Raja et al, Cell Biochem. and Funct., 1987, 5, 69-76, involved incubation of intestinal fragments from the mice with a 0-450 μM solution of a Fe^3+ chelate (the 2:1 nitrilotriacetate:iron(III) complex) whilst the latter, using techniques as described by Simpson and Peters, Biochim. Biophys. Acta., 1986, 856, 115-122), involved instillation of 50-100 μl of a 250 μM solution of the Fe^3+ chelate into a tied-off loop of intestine of an anaesthetised mouse.

[2] = system: intestinal fragments from the mice; test: In vitro 59Fe3+ uptake by intestinal fragments from EGF-fed mice; set-up: species or system mouse; settings: intestinal fragments of mice given about 1 n.mole/day EGF in drinking water; 0-450 μM Fe3+ nitrilotriacetate chelate; n in parentheses
Protocol: as §1

[3] = given intravenously; cited from earlier work
[4] = mean ± SE, oral EGF about 1 n.mole/day in drinking water, 250 μM Fe3+ chelate in tied-off loop, p < 0.01 vs controls

Substance: epidermal growth factor [EGF]
- Cell turnover rates as reflected by L-ornithine decarboxylase activity in the duodenum (duodenum): elevated
- Percentage of the 59Fe3+ present at 3 hours which was retained after 7 days (mice): 21.0±3.2
- Time course of total mucosal uptake of 59Fe3+ in vivo ([1]; EGF in drinking water for up to 7 days): maximal after 3 days
- Total mucosal flux ([1]; mean ± SE, oral EGF about 1 n.mole/day in drinking water, 250 μM Fe3+ chelate in tied-off loop, p < 0.001 vs controls): 92.4 ± 8.4 pmol 59Fe3+ /mg tissue/10 minu
- Carcass transfer [1, 4]: 35.3 ± 2.6 pmol 59Fe3+ /mg tissue/10 minu
- Mucosal retention [1, 4]: 57.1 ± 6.3 pmol 59Fe3+ /mg tissue/10 minu
- Vmax for 59Fe3+ uptake [2]: 9.4 ± 1.1 pmol/mg/min
- Half life in vivo [3]: about 21/2
